Experimental data published in patent US7678774B2 (priority 2003, dated 2010).

What was measured:
coronavirus (SARS) = settings: cited from earlier work
[1] = tested on: Mouse Hepatitis Virus Type-3 (MHV-3); settings: in vivo; cited from earlier work
[2] = tested on: human coronavirus strain OC-43; type: cell-based
[3] = tested on: human coronavirus strain OC-43; type: cell-based; remark: listed apart in the source
[4] = tested on: Four human tumor cell lines; settings: cited from earlier work
[5] = tested on: Mouse Hepatitis Virus Type-3 (MHV-3); settings: in vivo; cited from earlier work; remark: listed apart in the source

In the case of NC(=O)c1ncn([C@@H]2O[C@H](CO)[C@@H](O)[C@H]2O)n1 [ribavirin], the “Effect on the SARS coronavirus” value (coronavirus (SARS)) is given as “no effect”.

In the case of rIn.r(C12U)n, the “Survival relative to untreated mice” value [1] is listed as “survived up to four times longer”, the “Inhibition of virus in neutral red assay” value [2] is listed as “inhibit” and the “Inhibition of virus in viral cytopathic inhibition assay” value [3] is listed as “inhibit”. The “Antiproliferative interaction with interferons” value [4] was “worked synergistically with all interferons in all cell lines studied” and the “Virus clearance and development of chronic hepatitis” value [5] was “cleared the virus quickly and did not develop chronic hepatitis”.
